This is an account of results in patent US9073881B2, “Benzoic acid derivatives” (HOFFMANN-LA ROCHE INC., priority 2011, dated 2015).

Structures are written as SMILES.

The target of this experiment is Human eIF4E (Homo sapiens (Human), UniProt P06730). Kind of experiment: Human eIF4E/4G binding assay (time-resolved fluorescence, HH-eIF4E and biotin-labeled 4G2 peptide). Conditions: inhibition of binding of His-tagged human eIF4E (aa 28-217) to biotin-labeled 4G2 peptide. As for the experimental part: The protein was solubilized with 8 M urea and purified under denaturing conditions using nickel-charged HisTrap HP columns (GE Healthcare). The protein was refolded by diluting to approximately 0.25 mg/mL with 6 M urea, 20 mM Hepes pH 7.0, 500 mM NaCl, 1 mM DTT, 1 mM EDTA, and 0.5 M arginine.HCl, and then dialyzing overnight into the same buffer without the urea. The protein was further dialyzed into 20 mM Hepes pH 6.5, 50 mM NaCl, 1 mM EDTA, and 1 mM DTT, filtered, and then concentrated using Hitrap SP sepharose FF columns (GE Healthcare). The protein was dialyzed into 20 mM Hepes pH 7.0, 500 mM NaCl, 5 mM DTT, and 10% glycerol and stored at −80° C. until use. Test compounds (1.6 mM stock in DMSO) were diluted 3 fold in series in DMSO. Compound solutions were diluted 4 fold in Assay Buffer (50 mM sodium phosphate, pH 6.5, 50 mM KCl, 1 mM DTT and 0.5 mg/mL gammaglobulin). […] The samples were incubated at room temperature for 20 minutes. […] IC50 values were calculated using Condoseo software (Genedata AG).
Chain of Human eIF4E (P06730 28-217): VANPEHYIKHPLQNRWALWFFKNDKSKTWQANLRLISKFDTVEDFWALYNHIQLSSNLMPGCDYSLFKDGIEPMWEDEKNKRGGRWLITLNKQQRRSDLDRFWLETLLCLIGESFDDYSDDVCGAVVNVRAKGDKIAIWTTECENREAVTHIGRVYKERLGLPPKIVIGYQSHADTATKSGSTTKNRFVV

For `Cc1cc(C(N)=O)ccc1-c1ccc(-c2nc(-c3ccc(Cl)c(Cl)c3)cs2)cc1C(=O)O` [Example 78, 4′-Carbamoyl-4-[4-(3,4-dichloro-phenyl)-thiazol-2-yl]-2′-methyl-biphenyl-2-carboxylic acid], the IC50 turned out to be 1.9 µM.
Under `Cc1cc(C(=O)O)ccc1-c1ccc(-c2nc(-c3ccc(Cl)c(Cl)c3)cs2)cc1C(=O)O` [Example 79, 4-[4-(3,4-Dichloro-phenyl)-thiazol-2-yl]-2′-methyl-biphenyl-2,4′-dicarboxylic acid] stands 5.4 µM; under `CCOc1ncc(-c2ccc(-c3nc(-c4ccc(Cl)c(Cl)c4)cs3)cc2C(=O)O)cn1` [Example 82, 5-[4-(3,4-Dichloro-phenyl)-thiazol-2-yl]-2-(2-ethoxy-pyrimidin-5-yl)-benzoic acid], 3.6 µM; under `COc1ncc(-c2ccc(-c3nc(-c4ccc(Cl)c(Cl)c4)cs3)cc2C(=O)O)cn1` [Example 83, 5-[4-(3,4-Dichloro-phenyl)-thiazol-2-yl]-2-(2-methoxy-pyrimidin-5-yl)-benzoic acid], 14 µM.
Next, `O=C(O)c1cc(-c2nc(-c3ccc(Cl)c(Cl)c3)cs2)ccc1-c1cnc(O)nc1` [Example 84, 5-[4-(3,4-Dichloro-phenyl)-thiazol-2-yl]-2-(2-hydroxy-pyrimidin-5-yl)-benzoic acid]: 1.2 µM; `COc1cccc(-c2ccc(-c3nc(-c4ccc(Cl)c(Cl)c4)cs3)cc2C(=O)O)n1` [Example 85, 5-[4-(3,4-Dichloro-phenyl)-thiazol-2-yl]-2-(6-methoxy-pyridin-2-yl)-benzoic acid]: 9.7 µM.
For the compound `COc1ccc(-c2ccc(-c3nc(-c4ccc(Cl)c(Cl)c4)cs3)cc2C(=O)O)c(C(F)(F)F)c1` [Example 87, 4-[4-(3,4-Dichloro-phenyl)-thiazol-2-yl]-4′-methoxy-2′-trifluoromethyl-biphenyl-2-carboxylic acid], the IC50 is 1.3 µM.
Under `O=C(O)c1cc(-c2nc(-c3ccc(Cl)c(Cl)c3)cs2)ccc1-c1cc(OC(F)(F)F)ccc1Cl` [Example 88, 2′-Chloro-4-[4-(3,4-dichloro-phenyl)-thiazol-2-yl]-5′-trifluoromethoxy-biphenyl-2-carboxylic acid] stands 0.6 µM.
Next, `CCOc1ccc(-c2ccc(-c3nc(-c4ccc(Cl)c(Cl)c4)cs3)cc2C(=O)O)c(Cl)c1` [Example 89, 2′-Chloro-4-[4-(3,4-dichloro-phenyl)-thiazol-2-yl]-4′-ethoxy-biphenyl-2-carboxylic acid]: 2 µM.
Next, `COc1cccc(Cl)c1-c1ccc(-c2nc(-c3ccc(Cl)c(Cl)c3)cs2)cc1C(=O)O` [Example 90, 2′-Chloro-4-[4-(3,4-dichloro-phenyl)-thiazol-2-yl]-6′-methoxy-biphenyl-2-carboxylic acid]: 1.8 µM.
`COc1cccc(-c2ccc(-c3nc(-c4ccc(Cl)c(Cl)c4)cs3)cc2C(=O)O)c1` [Example 91, 4-[4-(3,4-Dichloro-phenyl)-thiazol-2-yl]-3′-methoxy-biphenyl-2-carboxylic acid] came in with a 50% inhibitory concentration (IC50) of 5 µM.
Under `COc1ccccc1-c1ccc(-c2nc(-c3ccc(Cl)c(Cl)c3)cs2)cc1C(=O)O` [Example 92, 4-[4-(3,4-Dichloro-phenyl)-thiazol-2-yl]-2′-methoxy-biphenyl-2-carboxylic acid] stands 4.8 µM; under `COc1ccc(Cl)c(-c2ccc(-c3nc(-c4ccc(Cl)c(Cl)c4)cs3)cc2C(=O)O)c1` [Example 93, 2′-Chloro-4-[4-(3,4-dichloro-phenyl)-thiazol-2-yl]-5′-methoxy-biphenyl-2-carboxylic acid], 3 µM.
Turning to `COc1ccc(-c2ccc(-c3nc(-c4ccc(Cl)c(Cl)c4)cs3)cc2C(=O)O)c(Cl)c1` [Example 94, 2′-Chloro-4-[4-(3,4-dichloro-phenyl)-thiazol-2-yl]-4′-methoxy-biphenyl-2-carboxylic acid], the IC50 is 1.5 µM.
`O=C(O)c1cc(-c2nc(-c3ccc(Cl)c(Cl)c3)cs2)ccc1-c1cc(O)ccc1Cl` [Example 95, 2′-Chloro-4-[4-(3,4-dichloro-phenyl)-thiazol-2-yl]-5′-hydroxy-biphenyl-2-carboxylic acid] gave an IC50 of 3.4 µM.
Under `Cc1ncccc1-c1ccc(-c2nc(-c3ccc(Cl)c(Cl)c3)cs2)cc1C(=O)O` [Example 98, 5-[4-(3,4-Dichloro-phenyl)-thiazol-2-yl]-2-(2-methyl-pyridin-3-yl)-benzoic acid] stands 4 µM; under `O=C(O)c1cc(-c2nc(-c3ccc(Cl)c(Cl)c3)cs2)ccc1-c1ccc(F)cn1` [Example 100, 5-[4-(3,4-Dichloro-phenyl)-thiazol-2-yl]-2-(5-fluoro-pyridin-2-yl)-benzoic acid], 3 µM.
As for `O=C(O)c1cc(-c2nc(-c3ccc(Cl)c(Cl)c3)cs2)ccc1-c1cncc(Cl)c1` [Example 102, 2-(5-Chloro-pyridin-3-yl)-5-[4-(3,4-dichloro-phenyl)-thiazol-2-yl]-benzoic acid], the half-maximal inhibitory concentration (IC50) was determined as 5.4 µM.
Turning to `O=C(O)c1cc(-c2nc(-c3ccc(Cl)c(Cl)c3)cs2)ccc1-c1ccncc1` [Example 103, 5-[4-(3,4-Dichloro-phenyl)-thiazol-2-yl]-2-pyridin-4-yl-benzoic acid], the half-inhibitory concentration (IC50) turned out to be 8.5 µM.
Next, `Cc1cc(C#N)ccc1-c1ccc(-c2nc(-c3ccc(Cl)c(Cl)c3)cs2)cc1C(=O)O` [Example 105, 4′-Cyano-4-[4-(3,4-dichloro-phenyl)-thiazol-2-yl]-2′-methyl-biphenyl-2-carboxylic acid]: 1.3 µM.
Under `N#Cc1ccc(-c2ccc(-c3nc(-c4ccc(Cl)c(Cl)c4)cs3)cc2C(=O)O)cc1` [Example 106, 4′-Cyano-4-[4-(3,4-dichloro-phenyl)-thiazol-2-yl]-biphenyl-2-carboxylic acid] stands 7.6 µM; under `N#Cc1cccc(-c2ccc(-c3nc(-c4ccc(Cl)c(Cl)c4)cs3)cc2C(=O)O)c1` [Example 107, 3′-Cyano-4-[4-(3,4-dichloro-phenyl)-thiazol-2-yl]-biphenyl-2-carboxylic acid], 3.2 µM.
Under `N#Cc1ccc(Cl)c(-c2ccc(-c3nc(-c4ccc(Cl)c(Cl)c4)cs3)cc2C(=O)O)c1` [Example 108, 2′-Chloro-5′-cyano-4-[4-(3,4-dichloro-phenyl)-thiazol-2-yl]-biphenyl-2-carboxylic acid] stands 3.5 µM; under `NC(=O)c1ccc(Cl)c(-c2ccc(-c3nc(-c4ccc(Cl)c(Cl)c4)cs3)cc2C(=O)O)c1` [Example 109, 5′-Carbamoyl-2′-chloro-4-[4-(3,4-dichloro-phenyl)-thiazol-2-yl]-biphenyl-2-carboxylic acid], 3.7 µM; under `N#Cc1ccc(Cl)cc1-c1ccc(-c2nc(-c3ccc(Cl)c(Cl)c3)cs2)cc1C(=O)O` [Example 110, 5′-Chloro-2′-cyano-4-[4-(3,4-dichloro-phenyl)-thiazol-2-yl]-biphenyl-2-carboxylic acid], 1.7 µM.
In turn, `N#Cc1ccc(-c2ccc(-c3nc(-c4ccc(Cl)c(Cl)c4)cs3)cc2C(=O)O)cc1Cl` [Example 114, 3′-Chloro-4′-cyano-4-[4-(3,4-dichloro-phenyl)-thiazol-2-yl]-biphenyl-2-carboxylic acid] returned a half-maximal inhibitory concentration (IC50) of 1.7 µM.
Under `N#Cc1cc(-c2ccc(-c3nc(-c4ccc(Cl)c(Cl)c4)cs3)cc2C(=O)O)ccc1Cl` [Example 115, 4′-Chloro-3′-cyano-4-[4-(3,4-dichloro-phenyl)-thiazol-2-yl]-biphenyl-2-carboxylic acid] stands 1.9 µM; under `CC(=O)c1cccc(-c2ccc(-c3nc(-c4ccc(Cl)c(Cl)c4)cs3)cc2C(=O)O)c1` [Example 116, 3′-Acetyl-4-[4-(3,4-dichloro-phenyl)-thiazol-2-yl]-biphenyl-2-carboxylic acid], 7.7 µM; under `CC(=O)c1ccccc1-c1ccc(-c2nc(-c3ccc(Cl)c(Cl)c3)cs2)cc1C(=O)O` [Example 117, 2′-Acetyl-4-[4-(3,4-dichloro-phenyl)-thiazol-2-yl]-biphenyl-2-carboxylic acid], 7.7 µM.
Next, `CC(=O)c1ccc(Cl)c(-c2ccc(-c3nc(-c4ccc(Cl)c(Cl)c4)cs3)cc2C(=O)O)c1` [Example 118, 5′-Acetyl-2′-chloro-4-[4-(3,4-dichloro-phenyl)-thiazol-2-yl]-biphenyl-2-carboxylic acid]: 1.5 µM.
Under `CC(=O)c1sccc1-c1ccc(-c2nc(-c3ccc(Cl)c(Cl)c3)cs2)cc1C(=O)O` [Example 119, 2-(2-Acetyl-thiophen-3-yl)-5-[4-(3,4-dichloro-phenyl)-thiazol-2-yl]-benzoic acid] stands 9.6 µM; under `CC(=O)c1ccc(-c2ccc(-c3nc(-c4ccc(Cl)c(Cl)c4)cs3)cc2C(=O)O)cc1` [Example 120, 4′-Acetyl-4-[4-(3,4-dichloro-phenyl)-thiazol-2-yl]-biphenyl-2-carboxylic acid], 3.8 µM; under `O=C(O)c1ccc(-c2ccc(-c3nc(-c4ccc(Cl)c(Cl)c4)cs3)cc2C(=O)O)c(F)c1` [Example 121, 4-[4-(3,4-Dichloro-phenyl)-thiazol-2-yl]-2′-fluoro-biphenyl-2,4′-dicarboxylic acid], 6.1 µM.
`Cc1ccc(C=O)c(-c2ccc(-c3nc(-c4ccc(Cl)c(Cl)c4)cs3)cc2C(=O)O)c1` [Example 122, 4-[4-(3,4-Dichloro-phenyl)-thiazol-2-yl]-2′-formyl-5′-methyl-biphenyl-2-carboxylic acid] had a concentration for half-maximal inhibition (IC50) of 5.1 µM.

As a reminder, the IC50 is the concentration that gives 50% inhibition.
